Reference: US6855728B2, “Small-molecule modulators of hepatocyte growth factor / scatter factor activities” (North Shore-Long Island Jewish Health System, priority 2001, dated 2005)

Experiments:
[1] = test system: Endothelial cells (HUVECs); assay: Endothelial cell (HUVEC) proliferation assay, 3H thymidine incorporation, compound without added growth factor; format: cell-based, human; details: for Activity at 2 microgram/ml Without HGF/SF: stimulation: stimulation of HUVEC proliferation; for activation at 5 µg/mL / activation at 10 µg/mL: HUVEC, 24 h; for activation at 10 µg/mL / Stimulation at 10 microg/ml / Stimulation/Inhibition at 10 microg/ml (result in words): 10 microg/ml
Protocol: Cell proliferation assays Endothelial cells (HUVECs) were seeded in 48 well plates at a density of 10,000 to 20,000 cells per well in the normal growth medium (EGM-2-Clonetics) containing 2% fetal bovine serum, FGF, VEGF, IGF, ascorbic acid, EGF, GA, heparin and hydrocortisone. The cells were grown normally in the growth medium for 24 hr at 37 degrees C. and 5% CO2. The cells were then rinsed with RPMI-1% BSA and starved for 1-2 hrs. The stock solutions of all the compounds were made at a concentration of 10 mg/ml in DMSO and diluted in RPMI-1% BSA at a final concentrations of 1 to 12 microgram/ml. The cells were then washed and treated with the compounds and incubated for another 24 hr at 37 degrees C. Then ^3H thymidine (0.5 microgram/ml in RPMI-BSA) was added to the cells and incubated at 37 degrees C. for 4 to 5 hours. The unincorporated thymidine was removed by washing the cells four times with 1× PBS. Then the cells were lysed with 0.5M NaOH for 30 min and the radioactivity counted in the beta counter. […]

[2] = test system: HGF/SF induced proliferation of HUVEC; assay: Endothelial cell (HUVEC) proliferation assay in the presence of exogenously-added HGF/SF; format: cell-based, human; details: with HGF/SF; for inhibition at 2 µg/mL / inhibition at 6 µg/mL: Homo sapiens, inhibition of HUVEC proliferation; for Activity at 2 microgram/ml With HGF/SF (result in words) / inhibition at 2 µg/mL: 2 microgram/ml; for inhibition at 2 µg/mL: read-out: Activity at 2 microgram/ml With HGF/SF: inhibition (blocked SF); for Activity at 6 microgram/ml With HGF/SF (result in words) / inhibition at 6 µg/mL: 6 microgram/ml; for inhibition at 6 µg/mL: read-out: Activity at 6 microgram/ml With HGF/SF: inhibition (blocked SF)
Excerpt: To evaluate inhibitors of activity, compounds may be evaluated directly for anti-proliferative activities, such as the inhibition of cellular proliferation, inhibition of tumor growth, inhibition of scatter, and inhibition of gene expression, and may also be evaluated on their ability to inhibit activity when exposed to cells together with. In such instances, the scatter and/or proliferative activities induced by added will be inhibited by the attendant presence of an inhibitory compound of the invention.
Cell proliferation assays Endothelial cells (HUVECs) were seeded in 48 well plates at a density of 10,000 to 20,000 cells per well in the normal growth medium (EGM-2-Clonetics) containing 2% fetal bovine serum, FGF, VEGF, IGF, ascorbic acid, EGF, GA, heparin and hydrocortisone. The cells were grown normally in the growth medium for 24 hr at 37 degrees C. and 5% CO2. The cells were then rinsed with RPMI-1% BSA and starved for 1-2 hrs. The stock solutions of all the compounds were made at a concentration of 10 mg/ml in DMSO and diluted in RPMI-1% BSA at a final concentrations of 1 to 12 microgram/ml. The cells were then washed and treated with the compounds and incubated for another 24 hr at 37 degrees C. Then ^3H thymidine (0.5 microgram/ml in RPMI-BSA) was added to the cells and incubated at 37 degrees C. for 4 to 5 hours. The unincorporated thymidine was removed by washing the cells four times with 1× PBS. Then the cells were lysed with 0.5M NaOH for 30 min and the radioactivity counted in the beta counter.

[3] = Homo sapiens, 5 microg/ml, stimulation of endothelial cell proliferation
[4] = Homo sapiens, stimulation of endothelial cell proliferation
[5] = 5 microg/ml, stimulation of endothelial cell proliferation
[6] = stimulation of endothelial cell proliferation

## C(=C1CCCc2c(-c3ccccc3)cc(-c3ccccc3)pc21)c1ccccc1 (stereo not shown) [8-Benzyledene-2,4 Diphenyl-5,6,7,8 Tetrahydrophosphinoline]
[1]; 1 ug/ml, without HGF/SF
  Activity at 1 ug/ml concentration Without HGF/SF (result in words): no significant effect
[2]; 1 ug/ml, inhibition of endothelial cell proliferation
  Activity at 1 ug/ml concentration With HGF/SF: inhibition: 40% inhibition

## Cc1nn(-c2onc(-c3c(Cl)cccc3Cl)c2C(=O)NN)c(C)c1Br [(4-bromo-3,5-dimethyl-1H-pyrazol-1-yl)(3-(2,6-dichlorophenyl)isoxazole-4-carbohydrazide)]
[1]; without HGF/SF
  Activity at 2 microgram/ml Without HGF/SF: stimulation: 74%
[2]
  Activity at 2 microgram/ml With HGF/SF (result in words): No effect
  Activity at 6 microgram/ml With HGF/SF (result in words): No effect

## Cc1nn(C(=O)c2ccc(Cl)cc2)c(C)c1Cc1c(F)cccc1Cl [(4-(2-chloro-6-fluorobenzyl)-3,5-dimethyl-1H-pyrazol-1-yl)(4-chlorophenyl)methanone]
[1]; without HGF/SF
  Activity at 2 microgram/ml Without HGF/SF: stimulation: 40%
[1]; [3]
  activation at 5 µg/mL: 41%
[1]; [4]
  activation at 10 µg/mL: 35%
[1]; Homo sapiens, 6 microgram/ml, without HGF/SF, inhibition of HUVEC proliferation
  inhibition at 6 µg/mL: 50%
[2]
  inhibition at 2 µg/mL: 30%
  inhibition at 6 µg/mL: 90%

## Cc1onc(-c2c(Cl)cccc2Cl)c1C(=O)NN(C)C [N′4,N′4,5-trimethyl-3-(2,6-dichlorophenyl)isoxazole-4-carbohydrazide]
[1]; without HGF/SF
  Activity at 2 microgram/ml Without HGF/SF (result in words): No effect
[1]; 6 microgram/ml, without HGF/SF
  Activity at 6 microgram/ml Without HGF/SF (result in words): No effect
[2]
  Activity at 2 microgram/ml With HGF/SF (result in words): No effect
  inhibition at 6 µg/mL: 40%

## CCOC(CC(=O)NNC(=O)c1c(-c2c(Cl)cccc2Cl)noc1C)OCC [N′4-(3,3-diethoxypropanoyl)-3-(2,6-dichlorophenyl)-5-methylisoxazole-4-carbohydrazide]
[1]; without HGF/SF
  Activity at 2 microgram/ml Without HGF/SF (result in words): No effect
[1]; 6 microgram/ml, without HGF/SF
  Activity at 6 microgram/ml Without HGF/SF (result in words): No effect
[2]
  Activity at 2 microgram/ml With HGF/SF (result in words): No effect
  inhibition at 6 µg/mL: 35%

## Cc1n[nH]c(C)c1Cc1c(F)cccc1Cl [4-(2-chloro-6-fluorobenzyl)-3,5-dimethyl-1H-pyrazole]
[1]; without HGF/SF
  Activity at 2 microgram/ml Without HGF/SF: stimulation: 54%
[1]; 6 microgram/ml, without HGF/SF
  Activity at 6 microgram/ml Without HGF/SF (result in words): No effect
[2]
  Activity at 2 microgram/ml With HGF/SF (result in words): No effect
  Activity at 6 microgram/ml With HGF/SF (result in words): No effect

## C[Si](C)(C)c1cccc(-c2ccccc2)c1 [(3-Biphenyl) Trimethyl silane]
[1]; 6-12 micrograms/ml, without HGF/SF, stimulation of endothelial cell proliferation
  Stimulation at 6-12 micrograms/ml Without HGF/SF: 40% stimulation
[2]; 6-12 micrograms/ml
  Stimulation/Inhibition at 6-12 micrograms/ml With (result in words): No effect

## c1ccc2c(c1)cc(-c1cc3ccccc3c3ccccc13)c1ccccc12 [9,9-Biphenanthrene]
[1]; 6-12 micrograms/ml, without HGF/SF
  Stimulation/Inhibition at 6-12 micrograms/ml Without HGF/SF (result in words): No effect
[2]; 6-12 micrograms/ml, inhibition of endothelial cell proliferation
  Inhibition at 6-12 micrograms/ml With: 20-40% inhibition

## Cc1nn(C(=O)C(C)(C)C)c(C)c1Cc1c(F)cccc1Cl [1-(4-(2-chloro-6-fluorobenzyl)-3,5-dimethyl-1H-pyrazole-1-yl)2,2-dimethylpropan-1-one]
[1]; without HGF/SF
  Activity at 2 microgram/ml Without HGF/SF (result in words): No effect
[1]; 6 microgram/ml, without HGF/SF
  Activity at 6 microgram/ml Without HGF/SF (result in words): No effect
[2]
  inhibition at 2 µg/mL: 25%
  inhibition at 6 µg/mL: 25%

## Cc1onc(-c2c(Cl)cccc2Cl)c1C(=O)NNc1c(Cl)cncc1Cl [N′4-(3,5-dichloro-4-pyridyl)-3-(2,6-dichlorophenyl)-5-methylisoxazole-4-carbohydrazide]
[1]; without HGF/SF
  Activity at 2 microgram/ml Without HGF/SF (result in words): No effect
[1]; 6 microgram/ml, without HGF/SF
  Activity at 6 microgram/ml Without HGF/SF (result in words): No effect
[2]
  inhibition at 2 µg/mL: 25%
  inhibition at 6 µg/mL: 25%

## CNC(=O)n1nc(C)c(Cc2csc3ccc(Cl)cc23)c1C [4-[(5-chloro-1-benzothiophen-3-yl)methyl]-N,3,5-trimethyl-1H-pyrazole-1-carboxamide]
[1]; [5]
  Stimulation at 5 microg/ml: two fold stimulation
[1]; [6]
  Stimulation at 10 microg/ml: two fold stimulation

## O=C(c1ccc(Cl)cc1)n1ccc(-c2cc(-c3ccccc3)no2)n1 [(4-chlorophenyl)(3-(3-phenylisoxazol-5-yl)-1H-pyrazol-1-yl)methanone]
[1]; [3]
  activation at 5 µg/mL: 54%
[1]; [4]
  activation at 10 µg/mL: 60%

## CNC(=O)n1ccc(C=Cc2cccs2)n1 [N-methyl-3-(2-(2-thienyl)vinyl)-1H-pyrazole-1-carboxamide]
[1]; [3]
  activation at 5 µg/mL: 70%
[1]; [4]
  activation at 10 µg/mL: 42%

## O=C(c1ccc(Cl)cc1)n1ccc(-c2ccc(-c3cccs3)s2)n1 [(4-chlorophenyl)(3-(5-(2-thienyl)-2-thienyl)-1H-pyrazol-1-yl)methanone]
[1]; [3]
  activation at 5 µg/mL: 40%
[1]; [4]
  activation at 10 µg/mL: 40%

## CCc1c[nH]nc1-c1c(F)cccc1F [3-(2,6-difluorophenyl)-4-ethyl-1H-pyrazole]
[1]; [5]
  Stimulation at 5 microg/ml: two fold stimulation
[1]; [4]
  activation at 10 µg/mL: 86%

## Cc1nn(C(=O)c2ccc(Cl)cc2)c(C)c1Sc1nccn1C [(4-chlorophenyl)(3,5-dimethyl-4-((1-methyl-1H-imidazol-2-yl)thio)-1H-pyrazol-1-yl)methanone]
[1]; [3]
  activation at 5 µg/mL: 52%
[1]; [4]
  activation at 10 µg/mL: 50%

## Cc1nn(C(=O)c2ccc([N+](=O)[O-])cc2)c(C)c1Cc1csc2ccc(Cl)cc12 [{4-[(5-chlorobenzo[b]thiophen-3-yl)methyl]-3,5-dimethyl-1H-pyrazol-1-yl}(4-nitrophenyl)methanone]
[1]; [6]
  Stimulation at 10 microg/ml: 2.5 fold stimulation
[1]; [3]
  activation at 5 µg/mL: 74%

## N#Cc1c(Cl)cccc1Oc1ccc(-c2ccnn2Cc2ccc(Cl)cc2)cc1 [2-chloro-6-(4-(1-(4-chlorobenzyl)-1H-pyrazol-5-yl)phenoxy)benzonitrile]
[1]; [3]
  activation at 5 µg/mL: 60%
[1]; [4]
  activation at 10 µg/mL: 90%

## CS(=O)(=O)n1ccc(C=Cc2cccs2)n1 [1-(methylsulfonyl)-3-(2-(2-thienyl)vinyl)-1H-pyrazole]
[1]
  Stimulation/Inhibition at 10 microg/ml (result in words): Not significant
[1]; [3]
  activation at 5 µg/mL: 74%

## O=C(Nc1ccccc1)n1ccc(C=Cc2cccs2)n1 [N1-phenyl-3-(2-(2-thienyl)vinyl)-1H-pyrazole-1-carboxamide]
[1]
  Stimulation/Inhibition at 10 microg/ml (result in words): Not significant
[1]; [3]
  activation at 5 µg/mL: 40%

## Cc1onc(-c2c(Cl)cccc2Cl)c1C(=O)NN [3-(2,6-dichlorophenyl)-5-methylisoxazole-4-carbohydrazide]
[1]; without HGF/SF
  Activity at 2 microgram/ml Without HGF/SF (result in words): not significant

## O=C(c1ccc(Cl)cc1)n1ccc(C(c2ccccc2)c2ccccc2)n1 [(3-benzhydryl-1H-pyrazol-1-yl)(4-chlorophenyl)methanone]
[1]; 5 microg/ml
  Stimulation/Inhibition at 5 microg/ml (result in words): No effect
[1]; [4]
  activation at 10 µg/mL: 25%

## Cc1nn(S(=O)(=O)c2ccc(Cl)c(Cl)c2)c(C)c1Cc1c(F)cccc1Cl [4-(2-chloro-6-fluorobenzyl)-1-((3,4-dichlorophenyl)sulfonyl)-3,5-dimethyl-1H-pyrazole]
[1]; without HGF/SF
  Activity at 2 microgram/ml Without HGF/SF: stimulation: 73%

## C=C(C)Cc1c(C)nn(S(=O)(=O)c2ccccc2)c1O [3-methyl-4-(2-methylallyl)-1-(phenylsulfonyl)-1H-pyrazol-5-ol]
[1]; [5]
  Stimulation at 5 microg/ml: two fold stimulation
[1]
  Stimulation/Inhibition at 10 microg/ml (result in words): Not significant
